The text below walks through data of ChEMBL document CHEMBL1132009, “Inhibition of MMP-1 and MMP-13 with phosphinic acids that exploit binding in the S2 pocket” (Bioorg Med Chem Lett, 1999).

The target of data set [1] is 72 kDa type IV collagenase (Homo sapiens, UniProt P08253). The data set can be described thus: Inhibition of recombinant matrix metalloprotease-2 (MMP-2).
The target of a further data set is T1, Interstitial collagenase (Homo sapiens, UniProt P03956).
T1 sequence (P03956 whole entry): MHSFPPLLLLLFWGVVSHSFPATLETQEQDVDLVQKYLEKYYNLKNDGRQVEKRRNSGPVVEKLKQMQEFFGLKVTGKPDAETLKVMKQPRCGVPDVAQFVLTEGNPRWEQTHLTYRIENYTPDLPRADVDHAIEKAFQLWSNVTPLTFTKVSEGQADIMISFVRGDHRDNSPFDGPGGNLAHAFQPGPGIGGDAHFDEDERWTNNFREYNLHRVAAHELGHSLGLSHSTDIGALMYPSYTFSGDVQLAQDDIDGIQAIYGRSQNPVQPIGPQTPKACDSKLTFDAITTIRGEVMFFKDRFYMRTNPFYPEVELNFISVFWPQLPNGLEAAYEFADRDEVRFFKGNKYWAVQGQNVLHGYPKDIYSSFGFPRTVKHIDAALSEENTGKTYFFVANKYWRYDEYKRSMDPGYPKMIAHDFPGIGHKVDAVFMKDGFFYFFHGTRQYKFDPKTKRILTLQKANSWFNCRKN
Nature of the data set: Inhibitory activity against recombinant matrix metalloprotease-1 (MMP-1).

The target in another data set is Stromelysin-1 (Homo sapiens, UniProt P08254). Nature of the data set: Inhibition of recombinant matrix metalloprotease-3 (MMP-3).
Stromelysin-1, sequence (P08254 whole entry): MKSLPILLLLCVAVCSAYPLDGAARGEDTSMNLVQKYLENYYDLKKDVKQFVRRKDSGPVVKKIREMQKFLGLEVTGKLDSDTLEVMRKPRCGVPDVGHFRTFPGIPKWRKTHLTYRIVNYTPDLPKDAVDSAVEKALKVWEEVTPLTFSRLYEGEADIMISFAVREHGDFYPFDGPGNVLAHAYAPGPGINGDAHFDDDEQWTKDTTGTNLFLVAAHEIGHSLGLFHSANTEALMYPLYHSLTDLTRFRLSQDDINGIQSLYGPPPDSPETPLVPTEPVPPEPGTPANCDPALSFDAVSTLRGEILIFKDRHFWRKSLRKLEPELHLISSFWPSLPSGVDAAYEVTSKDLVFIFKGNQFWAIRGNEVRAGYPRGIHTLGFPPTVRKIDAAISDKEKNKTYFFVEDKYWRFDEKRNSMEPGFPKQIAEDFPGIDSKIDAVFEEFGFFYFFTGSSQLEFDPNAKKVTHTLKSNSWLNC
In another data set the target is Collagenase 3 (Homo sapiens, UniProt P45452). Nature of the data set: Inhibition of recombinant Matrix metalloprotease-13 (MMP-13).
Data set [2] can be described thus: Selectivity ratio for MMP-2 over MMP-3.
Data set [3] is described as follows: Clearance after iv administration to rats. Type of data set: ADME, organism-based. Particulars: rat, in vivo.
Data set [4] is described as follows: Steady state volume of distribution after iv administration to rats. Format: ADME, organism-based. The settings on record: rat, in vivo.
The nature of data set [5]: Terminal half-life after iv administration to rats. Format: ADME, organism-based. Particulars: rat, in vivo.

SMILES strings stand for the structures.

72 kDa type IV collagenase, sequence (P08253 whole entry): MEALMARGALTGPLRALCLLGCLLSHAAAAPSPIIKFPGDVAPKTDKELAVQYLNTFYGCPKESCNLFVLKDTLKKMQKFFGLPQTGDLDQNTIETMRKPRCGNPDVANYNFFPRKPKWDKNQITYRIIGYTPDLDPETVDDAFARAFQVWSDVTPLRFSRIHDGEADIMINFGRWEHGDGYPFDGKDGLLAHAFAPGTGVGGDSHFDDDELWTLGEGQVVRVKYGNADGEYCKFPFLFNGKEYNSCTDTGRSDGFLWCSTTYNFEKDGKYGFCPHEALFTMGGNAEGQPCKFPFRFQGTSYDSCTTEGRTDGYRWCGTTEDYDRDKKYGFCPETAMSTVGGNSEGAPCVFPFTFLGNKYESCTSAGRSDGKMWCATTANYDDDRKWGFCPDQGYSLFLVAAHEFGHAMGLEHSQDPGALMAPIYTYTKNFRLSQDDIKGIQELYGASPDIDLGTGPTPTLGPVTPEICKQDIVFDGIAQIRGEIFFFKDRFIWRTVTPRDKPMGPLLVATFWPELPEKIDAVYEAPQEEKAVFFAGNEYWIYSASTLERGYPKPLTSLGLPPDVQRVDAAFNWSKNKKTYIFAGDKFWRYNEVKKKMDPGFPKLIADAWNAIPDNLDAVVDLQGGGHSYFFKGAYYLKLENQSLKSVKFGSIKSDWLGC

`CC(C)C[C@@H](NC(=O)[C@H](CCc1ccccc1)CP(=O)(O)CCCCN1C(=O)c2ccccc2C1=O)C(=O)Nc1ccccc1`: the Ki in data set [1] stood at 20 nM.

Turning to `CNC(=O)[C@H](NC(=O)C(CCc1ccccc1)CP(=O)(O)Cc1ccccc1)C(C)(C)C` (some centres undefined), the IC50 at Interstitial collagenase is 22000 nM; at Stromelysin-1, 2700 nM; on Collagenase 3, 300 nM.

Take `CNC(=O)[C@H](NC(=O)C(CCC(F)(F)F)CP(=O)(O)Cc1ccc(Cc2ccccc2)cc1)C(C)(C)C` (some centres undefined): the IC50 on Interstitial collagenase was 45 nM; at Collagenase 3, 1600 nM.

In the case of `CC(C)CC(CP(=O)(O)Cc1ccc(Cc2ccccc2)cc1)C(=O)NC(CO)C(C)(C)C` (centres undefined), the IC50 at Interstitial collagenase was determined as 18000 nM.

As for `CNC(=O)[C@H](NC(=O)C(CCCCOc1ccccc1)CP(=O)(O)Cc1ccc(Cc2ccccc2)cc1)C(C)(C)C` (some centres undefined), the IC50 on Interstitial collagenase is over 30000 nM; at Collagenase 3, 30 nM.

For the molecule `CC(=O)N1CCC[C@H]1C(=O)NCCCCP(=O)(O)C[C@@H](CCc1ccccc1)C(=O)N[C@H](CC(C)C)C(=O)Nc1ccccc1`, the Ki is 6.1 nM in data set [1] and 62 nM at Stromelysin-1. Moreover, the Selectivity in data set [2] came out at 10.

With `CNC(=O)[C@H](NC(=O)C(CCc1ccccc1)CP(=O)(O)Cc1ccc(Cc2ccccc2)cc1)C(C)(C)C` (some centres undefined), the clearance in data set [3] was determined as 12 mL/min/kg. The Vd in data set [4] came out at 0.2 L/kg. This molecule gave a half-life in data set [5] of 138 min. Besides, the IC50 was determined as 690 nM at Interstitial collagenase, 1200 nM at Stromelysin-1 and 14 nM at Collagenase 3.

With `CNC(=O)[C@H](NC(=O)C(CC1CCC1)CP(=O)(O)Cc1ccc(Cc2ccccc2)cc1)C(C)(C)C` (some centres undefined), the IC50 was 180 nM at Interstitial collagenase and 110 nM at Collagenase 3.

Take `CNC(=O)[C@@H](C)NC(=O)C(CC(C)C)CP(=O)(O)Cc1ccc(Cc2ccccc2)cc1` (some centres undefined): the IC50 on Interstitial collagenase came to 2300 nM.

Turning to `CNC(=O)[C@H](NC(=O)C(CC1CC1)CP(=O)(O)Cc1ccc(Cc2ccccc2)cc1)C(C)(C)C` (some centres undefined), the IC50 at Interstitial collagenase came out at 200 nM; on Collagenase 3 it was 1100 nM.

On to `CNC(=O)[C@H](NC(=O)C(CCC(C)C)CP(=O)(O)Cc1ccc(Cc2ccccc2)cc1)C(C)(C)C` (some centres undefined), for which the figures for the IC50 at Interstitial collagenase and at Collagenase 3 were 3500 nM and over 3000 nM, respectively.

Consider `CNC(=O)[C@H](NC(=O)C(CCC1CCCCC1)CP(=O)(O)Cc1ccc(Cc2ccccc2)cc1)C(C)(C)C` (some centres undefined), for which the results for the IC50 on Interstitial collagenase and at Collagenase 3 were 19000 nM and 2000 nM, respectively.

In the case of `CC(C)CC(CP(=O)(O)Cc1ccc(Cc2ccccc2)cc1)C(=O)NCC(C)(C)C` (centres undefined), the IC50 on Interstitial collagenase is 20000 nM.

Consider `CNC(=O)[C@H](NC(=O)C(CC1CCCCC1)CP(=O)(O)Cc1ccc(Cc2ccccc2)cc1)C(C)(C)C` (some centres undefined), for which the results for the IC50 on Interstitial collagenase and on Collagenase 3 were 1800 nM and 1600 nM, respectively.

On to `CNC(=O)[C@@H](Cc1ccc(OC)cc1)NC(=O)C(CC(C)C)CP(=O)(O)Cc1ccc(C(=O)NCc2ccccc2)cc1` (some centres undefined), for which the IC50 on Interstitial collagenase came out at 2100 nM.

As to `CNC(=O)[C@H](NC(=O)C(CC(C)C)CP(=O)(O)Cc1ccc(Cc2ccccc2)cc1)C(C)(C)C` (some centres undefined), the IC50 was 60 nM on Interstitial collagenase and 180 nM at Collagenase 3.

Regarding `CNC(=O)[C@H](NC(=O)C(CC(C)C)CP(=O)(O)Cc1ccc(C(=O)c2ccccc2)cc1)C(C)(C)C` (some centres undefined), the IC50 at Interstitial collagenase turned out to be 750 nM.
